Test results as given in patent publication US9481659B2, “Selective heterocyclic sphingosine 1 phosphate receptor modulators” (Celgene International II SÀRL, priority 2011, dated 2016).

These compounds were tested against S1P1/EDG1 (Homo sapiens, UniProt P21453) (assay: S1P1 CRE-bla CHOK1 reporter assay, inhibition of Forskolin induced cAMP). Settings: agonist activity range; S1P1 CRE-bla CHOK1 cells, 2 μM Forskolin; read-out: S1P1 ACTIVITY.
Assay type: cell-based
Method: Generation of S1P1-Mediated Inhibition of cAMP Reporter Assay
A mammalian expression plasmid containing S1P1/EDG1 cloned into pcDNA3.1 was purchased from Missouri S&T cDNA Resource Centre. […] S1P1/pcDNA3.1 was transfected into the CRE-bla CHO K1 (Invitrogen) cell line, and stable single cell clones were selected using standard techniques.
S1P1 CRE-Bla CHOK1 Reporter Assay—Characterization of S1P1 Agonists
Cells were seeded into 384-well black wall/clear bottom plates at 10^4 cells/well/19.5 μl assay media (DMEM-phenol free, 0.5% charcoal/dextran stripped serum, 2 mM glutamine, 0.1 mM NEAA, 1 mM Na-Pyruvate, 25 mM Hepes) and incubated for 18 hrs at 37° C. in 5% CO2. Dose response curves (10-point) were generated in 10 mM Hepes, 0.1% Pluronic F127, in the presence of Forskolin. Cells were treated with 0.5 μl compound in the presence of 2 μM Forskolin for 4 hrs at 37° C. The FRET-based β-lactamase fluorescent substrate (LiveBLAzer™-FRET B/G Loading Kit CC4-AM; Invitrogen) was prepared according to manufacturer's directions, and incubated with cells for 2 hrs at room temperature.

Chain of S1P1/EDG1 (P21453 whole entry): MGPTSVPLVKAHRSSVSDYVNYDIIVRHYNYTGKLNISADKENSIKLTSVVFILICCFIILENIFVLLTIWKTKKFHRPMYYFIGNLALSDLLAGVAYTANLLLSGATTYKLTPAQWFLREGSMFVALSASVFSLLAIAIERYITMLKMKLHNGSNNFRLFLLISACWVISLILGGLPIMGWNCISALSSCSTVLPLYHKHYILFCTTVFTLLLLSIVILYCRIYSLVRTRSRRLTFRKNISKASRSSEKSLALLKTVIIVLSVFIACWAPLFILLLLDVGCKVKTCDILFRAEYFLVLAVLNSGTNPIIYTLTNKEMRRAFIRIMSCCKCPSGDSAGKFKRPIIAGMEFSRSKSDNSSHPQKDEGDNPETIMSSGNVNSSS

CC(C)Oc1ccc(-c2nnc(-c3cccc4c3CC[C@H]4NC(=O)N3CCC[C@H](O)C3)s2)cc1C#N [Compound 61] and CC(C)Oc1ccc(-c2nnc(-c3cccc4c3CC[C@H]4NC(=O)N3CC[C@H](O)C3)s2)cc1C#N [Compound 54] fall in the same range of EC50: 0.05 to 0.5 nM for the first, 0.05 to 0.5 nM for the second.

Compared with CC(C)Oc1ccc(-c2nnc(-c3cccc4c3CCC[C@H]4NCc3ccccn3)s2)cc1C#N [Compound 264], CC(C)Oc1ccc(-c2nnc(-c3cccc4c3CCC[C@@H]4NCc3ncc[nH]3)s2)cc1C#N [Compound 266] is lower in EC50: 0.5 to 5 nM for the first, 0.05 to 0.5 nM for the second. The second is the more potent here.

COC(=O)N[C@H]1CCCc2c(-c3nnc(-c4ccc(OC(C)C)c(C#N)c4)s3)cccc21 [Compound 240] and COC(=O)N[C@@H]1CCc2c(-c3nnc(-c4ccc(OC(C)C)c(C#N)c4)s3)cccc21 [Compound 68] fall in the same range of EC50: 0.05 to 0.5 nM for the first, 0.05 to 0.5 nM for the second.

CC(C)Oc1ccc(-c2ncc(-c3cccc4c3CC[C@@H]4NS(=O)(=O)CCN3CC[C@@H](O)C3)s2)cc1C#N [Compound 131] and CC(C)Oc1ccc(-c2ncc(-c3cccc4c3CC[C@H]4NS(=O)(=O)CCN3CC[C@H](O)C3)s2)cc1C#N [Compound 134] fall in the same range of EC50: 0.5 to 5 nM for the first, 0.5 to 5 nM for the second.

CC(C)Oc1ccc(-c2ncc(-c3cccc4c3CC[C@H]4NS(=O)(=O)CCN(C)C)s2)cc1C#N [Compound 123] and CNCCS(=O)(=O)N[C@@H]1CCc2c(-c3cnc(-c4ccc(OC(C)C)c(C#N)c4)s3)cccc21 [Compound 126] fall in the same range of EC50: 0.5 to 5 nM for the first, 0.5 to 5 nM for the second.

CC(C)Oc1ccc(-c2ncc(-c3cccc4c3CC[C@H]4NS(C)(=O)=O)s2)cc1C#N [Compound 111, (R)—N-(4-(2-(3-cyano-4-isopropoxyphenyl)thiazol-5-yl)-2,3-dihydro-1H-inden-1-yl)methanesulfonamide] and CC(C)Oc1ccc(-c2ncc(-c3cccc4c3CC[C@H]4NCCS(C)(=O)=O)s2)cc1C#N [Compound 220, (R)-2-isopropoxy-5-(5-(1-((2-(methylsulfonyl)ethyl)amino)-2,3-dihydro-1H-inden-4-yl)thiazol-2-yl)benzonitrile] fall in the same range of EC50: 0.05 to 0.5 nM for the first, 0.05 to 0.5 nM for the second.

CC(C)Oc1ccc(-c2ncc(-c3cccc4c3CCC[C@H]4NS(N)(=O)=O)s2)cc1C#N [Compound 277, (R)—N-(5-(2-(3-cyano-4-isopropoxyphenyl)thiazol-5-yl)-1,2,3,4-tetrahydronaphthalen-1-yl)sulfamide] and CC(C)Oc1ccc(-c2ncc(-c3cccc4c3CC[C@H]4NS(=O)(=O)C3CC3)s2)cc1C#N [Compound 117] fall in the same range of EC50: 0.05 to 0.5 nM for the first, 0.05 to 0.5 nM for the second.

First: CC(C)Oc1ccc(-c2nnc(-c3cccc4c3CC[C@H]4NS(C)(=O)=O)s2)cc1C#N [Compound 34, (R)—N-(4-(5-(3-cyano-4-isopropoxyphenyl)-1,3,4-thiadiazol-2-yl)-2,3-dihydro-1H-inden-1-yl)methanesulfonamide]
Second: CC(C)Oc1ccc(-c2nnc(-c3cccc4c3CC[C@H]4NS(N)(=O)=O)s2)cc1C#N [Compound 48, (R)—N-(4-(5-(3-cyano-4-isopropoxyphenyl)-1,3,4-thiadiazol-2-yl)-2,3-dihydro-1H-inden-1-yl) sulfamide]
The EC50 of the first is higher: 0.05 to 0.5 nM for the first, under 0.05 nM for the second.

First: CC(C)Oc1ccc(-c2nnc(-c3cccc4c3CCC[C@H]4NC(=O)CCN(C)C)s2)cc1C#N [Compound 257, (R)—N-(5-(5-(3-cyano-4-isopropoxyphenyl)-1,3,4-thiadiazol-2-yl)-1,2,3,4-tetrahydronaphthalen-1-yl)-3-(dimethylamino)propanamide]
Second: CC(C)Oc1ccc(-c2nnc(-c3cccc4c3CCC[C@@H]4NC(=O)CCN(C)C)s2)cc1C#N [Compound 256, (S)—N-(5-(5-(3-cyano-4-isopropoxyphenyl)-1,3,4-thiadiazol-2-yl)-1,2,3,4-tetrahydronaphthalen-1-yl)-3-(dimethylamino)propanamide]
The EC50 of the first is higher: over 5 nM for the first, 0.5 to 5 nM for the second. The second is the more potent here.

CC(C)Oc1ccc(-c2ncc(-c3cccc4c3CC[C@H]4O)s2)cc1C#N [Compound 69, (R)-5-(5-(1-hydroxy-2,3-dihydro-1H-inden-4-yl)thiazol-2-yl)-2-isopropoxy benzonitrile] and CC(=O)N[C@@H]1CCc2c(-c3cnc(-c4ccc(OC(C)C)c(C#N)c4)s3)cccc21 [Compound 87] fall in the same range of EC50: 0.05 to 0.5 nM for the first, 0.05 to 0.5 nM for the second.

Compared with COC(=O)N[C@@H]1CCc2c(-c3cnc(-c4ccc(OC(C)C)c(C#N)c4)s3)cccc21 [Compound 89], CC(C)Oc1ccc(-c2ncc(-c3cccc4c3CC[C@H]4NC(=O)N(C)C)s2)cc1C#N [Compound 168] is lower in EC50: 0.5 to 5 nM for the first, 0.05 to 0.5 nM for the second. The second is the more potent here.

Compared with CC(C)Oc1ccc(-c2ncc(-c3cccc4c3CC[C@H]4NC(=O)N3CC[C@H](O)C3)s2)cc1C#N [Compound 177], CC(C)Oc1ccc(-c2ncc(-c3cccc4c3CC[C@H]4NC(=O)N3CC[C@H](N)C3)s2)cc1C#N [Compound 179] is higher in EC50: 0.05 to 0.5 nM for the first, 0.5 to 5 nM for the second. The first is the more potent here.

First: CC(C)Oc1ccc(-c2nnc(-c3cccc4c3CC[C@H]4NCCO)s2)cc1C#N [Compound 17, (R)-5-(5-(1-((2-hydroxyethyl)amino)-2,3-dihydro-1H-inden-4-yl)-1,3,4-thiadiazol-2-yl)-2-isopropoxybenzonitrile]
Second: COCCN[C@@H]1CCc2c(-c3nnc(-c4ccc(OC(C)C)c(C#N)c4)s3)cccc21 [Compound 19]
The EC50 of the first is lower: 0.05 to 0.5 nM for the first, 0.5 to 5 nM for the second. The first is the more potent here.

Compared with CC(C)Oc1ccc(-c2nnc(-c3cccc4c3CC[C@H]4NC(=O)CN(C)C)s2)cc1C#N [Compound 49], CNCC(=O)N[C@H]1CCCc2c(-c3nnc(-c4ccc(OC(C)C)c(C#N)c4)s3)cccc21 [Compound 252] is lower in EC50: 0.5 to 5 nM for the first, 0.05 to 0.5 nM for the second.

Compared with CC(C)Oc1ccc(-c2ncc(-c3cccc4c3CC[C@H]4NS(=O)(=O)CCN3CC[C@H](N)C3)s2)cc1C#N [Compound 136], CC(C)Oc1ccc(-c2ncc(-c3cccc4c3CC[C@H]4NS(=O)(=O)Cc3ccccc3)s2)cc1C#N [Compound 120] is lower in EC50: over 5 nM for the first, 0.5 to 5 nM for the second.

First: CC(C)Oc1ccc(-c2ncc(-c3cccc4c3CC[C@H]4NC(=O)Cc3ccccc3)s2)cc1C#N [Compound 83]
Second: CC(C)Oc1ccc(-c2ncc(-c3cccc4c3CC[C@H]4NC(=O)N3CCNCC3)s2)cc1C#N [Compound 188]
The EC50 of the first is higher: over 5 nM for the first, 0.5 to 5 nM for the second.

First: CC(C)Oc1ccc(-c2nnc(-c3cccc4c3CCC[C@H]4NCCS(C)(=O)=O)s2)cc1C#N [Compound 296, (R)-2-isopropoxy-5-(5-(5-((2-(methylsulfonyl)ethyl)amino)-5,6,7,8-tetrahydronaphthalen-1-yl)-1,3,4-thiadiazol-2-yl)benzonitrile]
Second: CC(C)Oc1ccc(-c2nnc(-c3cccc4c3CCC[C@@H]4NCCS(C)(=O)=O)s2)cc1C#N [Compound 297, (S)-2-isopropoxy-5-(5-(5-((2-(methylsulfonyl)ethyl)amino)-5,6,7,8-tetrahydronaphthalen-1-yl)-1,3,4-thiadiazol-2-yl)benzonitrile]
The EC50 of the first is lower: 0.05 to 0.5 nM for the first, 0.5 to 5 nM for the second.

Compared with CC(C)Oc1ccc(-c2nnc(-c3cccc4c3CCC[C@@H]4NC(=O)CCN)s2)cc1C#N [Compound 253], COCCS(=O)(=O)N[C@H]1CCCc2c(-c3nnc(-c4ccc(OC(C)C)c(C#N)c4)s3)cccc21 [Compound 281, (S)—N-(5-(5-(3-cyano-4-isopropoxyphenyl)-1,3,4-thiadiazol-2-yl)-1,2,3,4-tetrahydronaphthalen-1-yl)-2-methoxyethanesulfonamide] is lower in EC50: 0.5 to 5 nM for the first, 0.05 to 0.5 nM for the second.

CC(C)Oc1ccc(-c2nnc(-c3cccc4c3CCC[C@@H]4NCc3cnc[nH]3)s2)cc1C#N [Compound 267] and CC(C)Oc1ccc(-c2nnc(-c3cccc4c3CCC[C@H]4NC(=O)c3ccncc3)s2)cc1C#N [Compound 233] fall in the same range of EC50: 0.5 to 5 nM for the first, 0.5 to 5 nM for the second.

Compared with CC(C)Oc1ccc(-c2ncc(-c3cccc4c3CC[C@H]4NCC(=O)N3CCCC3)s2)cc1C#N [Compound 100], CC(C)Oc1ccc(-c2nnc(-c3cccc4c3CCC[C@@H]4NCC(=O)N3CCCC3)s2)cc1C#N [Compound 304, (S)-2-isopropoxy-5-(5-(5-((2-oxo-2-(pyrrolidin-1-yl)ethyl)amino)-5,6,7,8-tetrahydronaphthalen-1-yl)-1,3,4-thiadiazol-2-yl)benzonitrile] is higher in EC50: 0.05 to 0.5 nM for the first, 0.5 to 5 nM for the second.

CC(C)Oc1ccc(-c2ncc(-c3cccc4c3CC[C@H]4NCc3ncc[nH]3)s2)cc1C#N [Compound 109, (R)-5-(5-(1-(((1H-imidazol-2-yl)methyl)amino)-2,3-dihydro-1H-inden-4-yl)thiazol-2-yl)-2-isopropoxybenzonitrile] and CC(C)Oc1ccc(-c2ncc(-c3cccc4c3CC[C@H]4NC(=O)N3CC[C@@H](N(C)C)C3)s2)cc1C#N [Compound 183] fall in the same range of EC50: 0.5 to 5 nM for the first, 0.5 to 5 nM for the second.

First: CC(C)Oc1ccc(-c2nnc(-c3cccc4c3CC[C@H]4NS(=O)(=O)CC(=O)O)s2)cc1C#N [Compound 41, (R)-2-(N-(4-(5-(3-cyano-4-isopropoxyphenyl)-1,3,4-thiadiazol-2-yl)-2,3-dihydro-1H-inden-1-yl)sulfamoyl)acetic acid]
Second: COCCS(=O)(=O)N[C@@H]1CCCc2c(-c3nnc(-c4ccc(OC(C)C)c(C#N)c4)s3)cccc21 [Compound 280, (R)—N-(5-(5-(3-cyano-4-isopropoxyphenyl)-1,3,4-thiadiazol-2-yl)-1,2,3,4-tetrahydronaphthalen-1-yl)-2-methoxyethanesulfonamide]
The EC50 of the first is lower: under 0.05 nM for the first, 0.5 to 5 nM for the second.

First: CC(C)Oc1ccc(-c2ncc(-c3cccc4c3CC[C@H]4NC(=O)N3CCC(CC(=O)O)CC3)s2)cc1C#N [Compound 200]
Second: CC(C)Oc1ccc(-c2nnc(-c3cccc4c3CCC[C@@H]4NC(=O)c3ccncc3)s2)cc1C#N [Compound 241]
The EC50 of the first is lower: 0.05 to 0.5 nM for the first, 0.5 to 5 nM for the second. The first is the more potent here.
